Experimental data taken from PubChem BioAssay AID248 (DTP/NCI, 2004).
Values joined by “and” are separate entries in the source; they are usually repeats but may differ in a detail not shown here. Equal entries are not always repeated. Inconclusive results and toxic doses are left out. Rule as the data show it: active = T/C of 150% or more; inactive = T/C below 125%.

System: L1210 leukemia ip in BDF1 mice, survival T/C
Experiment: NCI In Vivo Anticancer Drug Screen. Data for tumor model L1210 Leukemia (intraperitoneal) in B6D2F1 (BDF1) mice
Conditions: endpoint: mean survival time, higher = longer survival
Summary of the method: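 Tumor was transplanted into mice, which were then dosed with test compound or vehicle alone. Survival was recorded for each group, and the treated figure was expressed relative to the control figure.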

[1] = dose: 100.0 mg/kg/injection, schedule: Q04DX003 (ip), vehicle: Klucel (hydroxypropylcellulose) (HPC)
[2] = dose: 200.0 mg/kg/injection, schedule: Q04DX003 (ip), vehicle: Klucel (hydroxypropylcellulose) (HPC)
[3] = dose: 400.0 mg/kg/injection, schedule: Q04DX003 (ip), vehicle: Klucel (hydroxypropylcellulose) (HPC)
[4] = dose: 100.0 mg/kg/injection, schedule: Q01DX009 (ip), vehicle: Klucel (hydroxypropylcellulose) (HPC)
[5] = dose: 200.0 mg/kg/injection, schedule: Q01DX009 (ip), vehicle: Klucel (hydroxypropylcellulose) (HPC)
[6] = dose: 400.0 mg/kg/injection, schedule: Q01DX009 (ip), vehicle: Klucel (hydroxypropylcellulose) (HPC)
[7] = dose: 100.0 mg/kg/injection, schedule: Q01DX009 (ip), vehicle: saline with Tween-80
[8] = dose: 200.0 mg/kg/injection, schedule: Q01DX009 (ip), vehicle: saline with Tween-80
[9] = dose: 100.0 mg/kg/injection, schedule: Q01DX009 (ip), vehicle: saline
[10] = dose: 100.0 mg/kg/injection, schedule: Q04DX003 (ip), vehicle: saline
[11] = dose: 200.0 mg/kg/injection, schedule: Q01DX009 (ip), vehicle: saline
[12] = dose: 200.0 mg/kg/injection, schedule: Q04DX003 (ip), vehicle: saline
[13] = dose: 400.0 mg/kg/injection, schedule: Q01DX009 (ip), vehicle: saline
[14] = dose: 400.0 mg/kg/injection, schedule: Q04DX003 (ip), vehicle: saline
[15] = dose: 100.0 mg/kg/injection, schedule: Q04DX003 (ip), vehicle: saline with Tween-80
[16] = dose: 200.0 mg/kg/injection, schedule: Q04DX003 (ip), vehicle: saline with Tween-80
[17] = dose: 400.0 mg/kg/injection, schedule: Q04DX003 (ip), vehicle: saline with Tween-80
[18] = dose: 25.0 mg/kg/injection, schedule: Q01DX009 (ip), vehicle: saline
[19] = dose: 25.0 mg/kg/injection, schedule: Q04DX003 (ip), vehicle: saline
[20] = dose: 50.0 mg/kg/injection, schedule: Q01DX009 (ip), vehicle: saline
[21] = dose: 50.0 mg/kg/injection, schedule: Q04DX003 (ip), vehicle: saline
[22] = dose: 75.0 mg/kg/injection, schedule: Q01DX001 (ip), vehicle: saline
[23] = dose: 100.0 mg/kg/injection, schedule: Q01DX001 (ip), vehicle: saline

Measured: T/C

NC(=O)C1C(=O)OC2(CCCC2)C1c1ccccc1 (stereo unspecified)
inactive: [1] 101 % of control | [2] 93 % of control | [3] 97 % of control

CCOC(=O)NC(C)(C)CN(CCO)C(=O)OCC
inactive: [4] 100 % of control | [1] 105 % of control | [5] 97 % of control | [2] 102 % of control | [6] 97 % of control | [3] 93 % of control

CN=C(NC)c1ccc(NC(=O)c2ccc(C(=O)Nc3ccc(C(=NC)NC)c(C)c3)cc2)cc1C
inactive: dose: 4.4 mg/kg/injection, schedule: Q01DX Z (ip), vehicle: carboxymethylcellulose (CMC) 98 % of control | dose: 6.6 mg/kg/injection, schedule: Q01DX Z (ip), vehicle: carboxymethylcellulose (CMC) 102 % of control | dose: 10.0 mg/kg/injection, schedule: Q01DX Z (ip), vehicle: carboxymethylcellulose (CMC) 100 % of control | dose: 15.0 mg/kg/injection, schedule: Q01DX Z (ip), vehicle: carboxymethylcellulose (CMC) 107 % of control and 108 % of control and 112 % of control | dose: 22.5 mg/kg/injection, schedule: Q01DX Z (ip), vehicle: carboxymethylcellulose (CMC) 111 % of control | dose: 30.0 mg/kg/injection, schedule: Q01DX Z (ip), vehicle: carboxymethylcellulose (CMC) 96 % of control | dose: 35.0 mg/kg/injection, schedule: Q01DX Z (ip), vehicle: carboxymethylcellulose (CMC) 100 % of control

CCCCS(=O)(=O)CCN1C(=O)C2C3CCC(O3)C2C1=O (stereo unspecified)
inactive: dose: 100.0 mg/kg/injection, schedule: Q04DX002 (ip), vehicle: Klucel (hydroxypropylcellulose) (HPC) 98 % of control | dose: 200.0 mg/kg/injection, schedule: Q04DX002 (ip), vehicle: Klucel (hydroxypropylcellulose) (HPC) 123 % of control | dose: 400.0 mg/kg/injection, schedule: Q04DX002 (ip), vehicle: Klucel (hydroxypropylcellulose) (HPC) 107 % of control

O=C(Nc1ccc([N+](=O)[O-])cc1)C(c1ccccc1)c1ccccc1
inactive: dose: 100.0 mg/kg/injection, schedule: Q04DX002 (ip), vehicle: gum acacia 100 % of control | dose: 200.0 mg/kg/injection, schedule: Q04DX002 (ip), vehicle: gum acacia 100 % of control | dose: 400.0 mg/kg/injection, schedule: Q04DX002 (ip), vehicle: gum acacia 93 % of control

CCCCOc1ccc(OC(=O)Nc2ccc(C(=O)OCC)cc2)cc1
inactive: [4] 98 % of control | [5] 95 % of control | [6] 97 % of control

NCC(=O)Nc1ccc(Cl)cc1C(=O)c1ccc[nH]1
inactive: [7] 93 % of control | [8] 87 % of control | dose: 400.0 mg/kg/injection, schedule: Q01DX009 (ip), vehicle: saline with Tween-80 90 % of control

CN(C)C(=N)C(=N)N(C)C
inactive: [9] 96 % of control | [10] 98 % of control | [11] 88 % of control | [12] 100 % of control | [13] 94 % of control | [14] 93 % of control

O=C(O)c1cscc1-c1c2ccccc2cc2ccccc12
inactive: [15] 88 % of control | [16] 91 % of control | [17] 88 % of control

COc1ccc(C(=O)OCCN(CCN(CCOC(=O)c2ccc(OC)cc2)C(=O)c2ccc(OC)cc2)C(=O)c2ccc(OC)cc2)cc1
inactive: dose: 25.0 mg/kg/injection, schedule: Q01DX009 (ip), vehicle: Klucel (hydroxypropylcellulose) (HPC) 88 % of control | dose: 50.0 mg/kg/injection, schedule: Q01DX009 (ip), vehicle: Klucel (hydroxypropylcellulose) (HPC) 96 % of control | [4] 89 % of control | [5] 94 % of control | [6] 105 % of control

Cc1cc(C)c(-c2c(O)c(Br)c(C)c(O)c2Br)c(C)c1Br
inactive: dose: 75.0 mg/kg/injection, schedule: Q04DX003 (ip), vehicle: Klucel (hydroxypropylcellulose) (HPC) 97 % of control | dose: 150.0 mg/kg/injection, schedule: Q04DX003 (ip), vehicle: Klucel (hydroxypropylcellulose) (HPC) 97 % of control | dose: 300.0 mg/kg/injection, schedule: Q04DX003 (ip), vehicle: Klucel (hydroxypropylcellulose) (HPC) 92 % of control

COc1cc2c(cc1OC(C)=O)C(=O)C(Br)CCC2 (stereo unspecified)
inactive: dose: 50.0 mg/kg/injection, schedule: Q01DX009 (ip), vehicle: saline with Tween-80 90 % of control | [7] 101 % of control | [8] 93 % of control

O=NN(C(=O)c1ccccc1)C(c1ccccc1)c1ccc(Cl)cc1 (stereo unspecified)
inactive: dose: 45.0 mg/kg/injection, schedule: Q04DX002 (ip), vehicle: Klucel (hydroxypropylcellulose) (HPC) 91 % of control | dose: 90.0 mg/kg/injection, schedule: Q04DX002 (ip), vehicle: Klucel (hydroxypropylcellulose) (HPC) 91 % of control | dose: 180.0 mg/kg/injection, schedule: Q04DX002 (ip), vehicle: Klucel (hydroxypropylcellulose) (HPC) 97 % of control

CC1(C)CCCC(Cl)(C(Cl)c2ccccc2)C1=O (stereo unspecified)
inactive: [9] 90 % of control | [10] 104 % of control | [11] 95 % of control | [12] 102 % of control | [13] 91 % of control | [14] 104 % of control

CCN(CC)CCCC(C)Nc1c2ccc(Cl)cc2nc2cc(Cl)ccc12 (stereo unspecified)
inactive: [18] 92 % of control | [19] 100 % of control | [20] 95 % of control | [21] 98 % of control | [10] 93 % of control and 86 % of control

COc1ccc(NN=Nc2ccccc2C#N)cc1
inactive: [1] 106 % of control | [2] 100 % of control | [3] 108 % of control

COc1ccccc1NC1=C(NC(=O)Cc2ccccc2)C(=O)c2ccccc2C1=O
inactive: [15] 98 % of control | [16] 96 % of control | [17] 94 % of control

CC(C)(C)OC(=O)N1C2CCC(C2)N1C(=O)OC(C)(C)C
inactive: dose: 100.0 mg/kg/injection, schedule: Q01DX001 (ip), vehicle: carboxymethylcellulose (CMC) 100 % of control | dose: 200.0 mg/kg/injection, schedule: Q01DX001 (ip), vehicle: carboxymethylcellulose (CMC) 96 % of control | dose: 400.0 mg/kg/injection, schedule: Q01DX001 (ip), vehicle: carboxymethylcellulose (CMC) 96 % of control

OCCN1CCN(CC/C=C2/c3ccccc3Sc3ccc(Cl)cc32)CC1
inactive: dose: 6.25 mg/kg/injection, schedule: Q01DX001 (ip), vehicle: saline 96 % of control | dose: 8.0 mg/kg/injection, schedule: Q01DX015 (ip), vehicle: saline 107 % of control | dose: 12.5 mg/kg/injection, schedule: Q01DX001 (ip), vehicle: saline 102 % of control | dose: 12.5 mg/kg/injection, schedule: Q01DX009 (ip), vehicle: saline 108 % of control | dose: 25.0 mg/kg/injection, schedule: Q01DX001 (ip), vehicle: saline 98 % of control and 122 % of control | [18] 116 % of control | [19] 110 % of control | dose: 37.5 mg/kg/injection, schedule: Q01DX001 (ip), vehicle: saline 101 % of control | dose: 50.0 mg/kg/injection, schedule: Q01DX001 (ip), vehicle: saline 113 % of control | [21] 116 % of control | [22] 102 % of control and 120 % of control | [23] 100 % of control

COC(C)C(Br)C(=O)O (stereo unspecified)
inactive: [20] 98 % of control | [9] 95 % of control | [10] 88 % of control | [11] 90 % of control | [12] 90 % of control

CC1(Br)C(=O)C(O)=C(Br)C1=O (stereo unspecified)
inactive: [22] 104 % of control | dose: 150.0 mg/kg/injection, schedule: Q01DX001 (ip), vehicle: saline 106 % of control

CS(=O)(=O)NC(=O)C[P+](c1ccccc1)(c1ccccc1)c1ccccc1
inactive: [23] 96 % of control | dose: 200.0 mg/kg/injection, schedule: Q01DX001 (ip), vehicle: saline 89 % of control | dose: 400.0 mg/kg/injection, schedule: Q01DX001 (ip), vehicle: saline 98 % of control

CCOC(=O)N(CC(C)C(=O)OC)C(C)C (stereo unspecified)
inactive: dose: 100.0 mg/kg/injection, schedule: Q01DX Z (ip), vehicle: saline 100 % of control | dose: 200.0 mg/kg/injection, schedule: Q01DX Z (ip), vehicle: saline 97 % of control

CC12C(=O)N(C3CCC(=O)NC3=O)C(=O)C1C1CCC2C1 (stereo unspecified)
inactive: [15] 96 % of control
